Laboratory results taken from article PMC9848473 (Science Advances, 2023).

Assays:
[1] = molecular target: T1, RelBs^NTD2:DarB2 complex (DarB:RelBs^NTD) (Bacillus subtilis, UniProt O54408); assay: stopped-flow FRET, Kd = koff/kon; format: binding; conditions: read-out: Kd^MANT-ATP
T1 construct: gene relA; heterotetramer of Rel residues 1 to 373 with full-length DarB, His10-SUMO tags cleaved, complex purified by size exclusion chromatography; with CBS domain-containing protein YkuL

[2] = molecular target: DarB (Bacillus subtilis, UniProt O31698); assay: biochemical
DarB, sequence (O31698 whole entry): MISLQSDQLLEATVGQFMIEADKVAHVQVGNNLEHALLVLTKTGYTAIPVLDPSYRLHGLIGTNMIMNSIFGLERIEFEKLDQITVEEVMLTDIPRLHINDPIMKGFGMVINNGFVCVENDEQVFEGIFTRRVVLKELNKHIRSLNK

[3] = molecular target: T2, RelBs^NTD (Bacillus subtilis, UniProt O54408); assay: isothermal titration calorimetry; format: binding; conditions: 25°C; pH 7.5; 10 mM MgCl2
T2 construct: gene relA; N-terminal domain region, residues 1 to 373 (HD, SYNTH and core domains), His10-SUMO tag cleaved with Ulp1, from E. coli BL21(DE3)
T2 sequence (O54408 1-373): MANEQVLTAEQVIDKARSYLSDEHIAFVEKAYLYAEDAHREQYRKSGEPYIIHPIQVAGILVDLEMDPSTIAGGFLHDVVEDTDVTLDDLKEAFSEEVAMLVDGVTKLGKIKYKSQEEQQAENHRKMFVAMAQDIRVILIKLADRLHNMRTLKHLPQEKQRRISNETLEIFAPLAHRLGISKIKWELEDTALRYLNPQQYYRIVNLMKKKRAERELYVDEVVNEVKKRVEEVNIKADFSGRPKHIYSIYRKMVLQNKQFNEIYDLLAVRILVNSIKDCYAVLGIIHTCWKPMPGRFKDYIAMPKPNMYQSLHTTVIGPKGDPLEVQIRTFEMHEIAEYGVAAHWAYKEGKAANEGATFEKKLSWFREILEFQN

[4] = molecular target: T1, RelBs^NTD2:DarB2 complex (DarB:RelBs^NTD); assay: isothermal titration calorimetry; format: binding

T1 sequence (O54408 1-373): as above
T1 sequence (O31698 whole entry, further chain, the tested form may be a part): as the sequence (O31698 whole entry) above

Structure (SMILES): CNc1ccccc1C(=O)O[C@H]1[C@@H](O)[C@H](n2cnc3c(N)ncnc32)O[C@@H]1CO[P@@](=O)(O)O[P@](=O)(O)OP(=O)(O)O (mixture of isomers) [MANT-ATP]
- Kd [1]: 308 µM

Structure (SMILES): Nc1ncnc2c1ncn2[C@@H]1O[C@@H]2COP(=O)(O)O[C@H]3[C@@H](O)[C@H](n4cnc5c(N)ncnc54)O[C@@H]3COP(=O)(O)O[C@H]2[C@H]1O [c-di-AMP]
- Kd [2]: 0.0457 µM

Structure (SMILES): Nc1ncnc2c1ncn2[C@@H]1O[C@H](COP(=O)(O)CP(=O)(O)OP(=O)(O)O)[C@@H](O)[C@H]1O [APCPP, adenosine-5′-[(α,β)-methyleno]triphosphate]
- isothermal titration calorimetry [3]: RelBs^NTD alone has low affinity to APCPP (Fig. 5G)
- Kd ([4]; read-out: Kd^APCPP): 115 µM

Structure (SMILES): Nc1nc2c(ncn2[C@@H]2O[C@H](COP(=O)(O)OP(=O)(O)OP(=O)(O)O)[C@@H](OP(=O)(O)OP(=O)(O)O)[C@H]2O)c(=O)[nH]1 [pppGpp]
- Kd ([4]; read-out: Kd): 8.2 µM
